In brackets after ≈: the same amount, converted by molar mass.
What was measured:
[1] = Inhibition of HCMV DNA polymerase extracted from baculovirus infected Sf21 cells using Heterodimeric nucleic acid as substrate preincubated with enzyme for 30 mins followed by substrate and dATP addition measured after 60 mins by biotinylated UTP incorporation based AlphaLISA assay; design: species or system Human betaherpesvirus 5
[2] = Inhibition of VZV DNA polymerase extracted from baculovirus infected Sf21 cells using Heterodimeric nucleic acid as substrate preincubated with enzyme for 30 mins followed by substrate and dATP addition measured after 60 mins by biotinylated UTP incorporation based AlphaLISA assay; design: species or system Human alphaherpesvirus 3
Human betaherpesvirus 5 [3] = test: Antiviral activity against HCMV AD169 infected in human MRC5 cells assessed as reduction in viral replication incubated for 72 hrs in presence of 50 % serum by qRT-PCR analysis; type: functional, organism-based
Human alphaherpesvirus 3 [4] = test: Antiviral activity against VZV Street infected in human MeWo cells assessed as reduction in viral replication incubated for 72 hrs by qRT-PCR analysis; type: functional, organism-based
Human alphaherpesvirus 1 = test: Antiviral activity against HSV-1 F strain infected in African green monkey Vero cells assessed as reduction in viral replication incubated for 72 hrs by qRT-PCR analysis; type: functional, organism-based
Human alphaherpesvirus 2 = test: Antiviral activity against HSV-2 G strain infected in African green monkey Vero cells assessed as reduction in viral replication incubated for 72 hrs by qRT-PCR analysis; type: functional, organism-based
Human alphaherpesvirus 3 [5] = test: Antiviral activity against VZV Street infected in human MRC5 cells assessed as reduction in viral replication incubated for 72 hrs by qRT-PCR analysis; type: functional, organism-based; conditions: Human alphaherpesvirus 3, Street, MRC5, 72 h
[6] = Solubility in PBS at pH 7; type: physicochemical
[7] = Metabolic stability in human liver microsomes assessed as intrinsic clearance; type: ADME, Microsome; conditions: read-out: CLH
Human betaherpesvirus 5 [8] = test: Antiviral activity against HCMV AD169 infected in human MRC5 cells assessed as reduction in viral replication incubated for 72 hrs in presence of 10 % serum by qRT-PCR analysis; type: functional, organism-based; conditions: Human betaherpesvirus 5, AD169, MRC5, 72 h
[9] = Human betaherpesvirus 5, AD169, MRC5, 72 h, read-out: EC50
[10] = Human alphaherpesvirus 3, Street, MeWo, 72 h, read-out: EC50
[11] = Human alphaherpesvirus 1, F strain, Vero, 72 h, read-out: EC50
[12] = Human alphaherpesvirus 2, G strain, Vero, 72 h, read-out: EC50

O=C(Cc1ccc(Cl)cc1)Nc1ccc(C[C@H]2COC(=O)N2)cc1
IC50 [1]: 250 nM
IC50 [2]: 180 nM
EC50 (Human betaherpesvirus 5 [3]; [9]): 4320 nM
EC50 (Human alphaherpesvirus 3 [4]; [10]): 500 nM
EC50 (Human alphaherpesvirus 1; [11]): 530 nM
EC50 (Human alphaherpesvirus 2; [12]): 1340 nM

O=C(Cc1ccc(Cl)cc1)Nc1ccc(C[C@@H]2COC(=O)N2)cc1
IC50 [1]: 2810 nM
IC50 [2]: 790 nM
EC50 (Human betaherpesvirus 5 [3]; [9]): 55600 nM
EC50 (Human alphaherpesvirus 3 [4]; [10]): 14800 nM
EC50 (Human alphaherpesvirus 1; [11]): 7300 nM
EC50 (Human alphaherpesvirus 2; [12]): 8690 nM

O=C1N[C@@H](Cc2ccc3c(c2)OCC(Cc2ccc(Cl)cc2)N3)CO1 (stereo partly drawn)
IC50 [1]: 490 nM
IC50 [2]: 350 nM
EC50 (Human betaherpesvirus 5 [3]; [9]): 13100 nM
EC50 (Human alphaherpesvirus 3 [4]; [10]): 3060 nM
EC50 (Human alphaherpesvirus 1; [11]): 3120 nM
EC50 (Human alphaherpesvirus 2; [12]): 5240 nM

CN1C(=O)OC[C@@H]1Cc1ccc(NC(=O)Cc2ccc(Cl)cc2)cc1
IC50 [1]: 2550 nM
IC50 [2]: 1840 nM
EC50 (Human betaherpesvirus 5 [3]): Not Active
EC50 (Human alphaherpesvirus 3 [4]): Not Active
EC50 (Human alphaherpesvirus 1): Not Active
EC50 (Human alphaherpesvirus 2): Not Active

COc1cc(NC(=O)Cc2ccc(C#N)c(F)c2)ccc1C[C@H]1COC(=O)N1
IC50 [1]: 46 nM
IC50 [2]: 28 nM
EC50 (Human betaherpesvirus 5 [3]; [9]): 141 nM
EC50 (Human alphaherpesvirus 3 [4]; [10]): 265 nM
EC50 (Human alphaherpesvirus 1; [11]): 494 nM
EC50 (Human alphaherpesvirus 2; [12]): 551 nM

COc1cc(NC(=O)Cc2ccc(S(F)(F)(F)(F)F)cc2)ccc1C[C@H]1COC(=O)N1
IC50 [1]: 944 nM
IC50 [2]: 2220 nM
EC50 (Human betaherpesvirus 5 [3]): Not Active
EC50 (Human alphaherpesvirus 1): Not Active
EC50 (Human alphaherpesvirus 3 [5]): 52700 nM
EC50 (Human alphaherpesvirus 2): Not Active

COc1cc(NC(=O)Cc2ccc(Cl)cc2F)ccc1C[C@H]1COC(=O)N1
IC50 [1]: 45 nM
IC50 [2]: 17 nM
EC50 (Human betaherpesvirus 5 [3]; [9]): 1130 nM
EC50 (Human alphaherpesvirus 3 [4]; [10]): 23 nM
EC50 (Human alphaherpesvirus 1; [11]): 214 nM
EC50 (Human alphaherpesvirus 2; [12]): 589 nM
solubility [6]: 153 µM (≈ 60.1 µg/mL)
CLint scaled [7]: 16 mL/min/kg

CC(C)(c1ccccc1)c1ccc(NC(=O)Cc2ccc(Cl)cc2)cc1
IC50 [1]: > 133000 nM
IC50 [2]: > 133000 nM

O=C1N[C@@H](Cc2ccc3c(c2)CCN(Cc2ccc(Cl)cc2)C3=O)CO1
IC50 [1]: 27600 nM
IC50 [2]: 40300 nM
EC50 (Human betaherpesvirus 5 [8]): 44200 nM
EC50 (Human alphaherpesvirus 3 [4]): Not Active
EC50 (Human alphaherpesvirus 1): Not Active
EC50 (Human alphaherpesvirus 2): Not Active

O=C(Cc1ccc(Cl)cc1Cl)Nc1ccc(C[C@H]2COC(=O)N2)cc1
IC50 [1]: 130 nM
IC50 [2]: 130 nM
EC50 (Human betaherpesvirus 5 [3]; [9]): 1340 nM
EC50 (Human alphaherpesvirus 3 [4]; [10]): 540 nM
EC50 (Human alphaherpesvirus 1; [11]): 810 nM
EC50 (Human alphaherpesvirus 2; [12]): 910 nM

CC(=O)c1ccc(NC(=O)Cc2ccc(Cl)cc2)cc1
IC50 [1]: 6600 nM
IC50 [2]: 4800 nM

CN(C(=O)Cc1ccc(Cl)cc1Cl)c1ccc(C[C@H]2COC(=O)N2)cc1
IC50 [1]: 14600 nM
IC50 [2]: 14100 nM
EC50 (Human betaherpesvirus 5 [3]): Not Active
EC50 (Human alphaherpesvirus 3 [4]): Not Active
EC50 (Human alphaherpesvirus 1): Not Active
EC50 (Human alphaherpesvirus 2): Not Active

C[C@H](c1ccc(NC(=O)Cc2ccc(Cl)cc2)cc1)[C@H]1COC(=O)N1
IC50 [1]: 16700 nM
IC50 [2]: 6500 nM
EC50 (Human betaherpesvirus 5 [3]): Not Active
EC50 (Human alphaherpesvirus 3 [4]): Not Active
EC50 (Human alphaherpesvirus 1): Not Active
EC50 (Human alphaherpesvirus 2): Not Active

COc1cc(NC(=O)Cc2ccc(OC(F)(F)F)cc2)ccc1C[C@H]1COC(=O)N1
IC50 [1]: 1290 nM
IC50 [2]: 1690 nM
EC50 (Human betaherpesvirus 5 [3]): Not Active
EC50 (Human alphaherpesvirus 1): Not Active
EC50 (Human alphaherpesvirus 3 [5]): 64500 nM
EC50 (Human alphaherpesvirus 2): Not Active

CC(C(=O)Nc1ccc(C[C@H]2COC(=O)N2)cc1)c1ccc(Cl)cc1 (stereo partly drawn)
IC50 [1]: 7190 nM
IC50 [2]: 7730 nM
EC50 (Human betaherpesvirus 5 [3]): Not Active
EC50 (Human alphaherpesvirus 3 [4]): Not Active
EC50 (Human alphaherpesvirus 1): Not Active
EC50 (Human alphaherpesvirus 2): Not Active

O=C(Cc1ccc(Cl)cc1)Nc1cnc(C[C@H]2COC(=O)N2)cn1
IC50 [1]: 6500 nM
IC50 [2]: 2090 nM
EC50 (Human betaherpesvirus 5 [3]; [9]): 94000 nM
EC50 (Human alphaherpesvirus 3 [4]): Not Active
EC50 (Human alphaherpesvirus 1; [11]): 25700 nM
EC50 (Human alphaherpesvirus 2; [12]): 44800 nM

N#CC1(c2ccc(NC(=O)Cc3ccc(Cl)cc3)cc2)CC1
IC50 [1]: 8300 nM
IC50 [2]: 2700 nM

COc1cc(NC(=O)C2CCc3cc(Cl)ccc32)ccc1C[C@H]1COC(=O)N1 (stereo partly drawn)
IC50 [1]: 26 nM
IC50 [2]: 20 nM
EC50 (Human betaherpesvirus 5 [3]; [9]): 560 nM
EC50 (Human alphaherpesvirus 3 [4]; [10]): 240 nM
EC50 (Human alphaherpesvirus 1; [11]): 249 nM
EC50 (Human alphaherpesvirus 2; [12]): 384 nM
solubility [6]: 57 µM (≈ 22.8 µg/mL)
CLint scaled [7]: 63 mL/min/kg

O=C(Cc1ccc(Cl)cc1)Nc1ccc(CC2COC(=O)N2)cc1 (racemic)
IC50 [1]: 340 nM
IC50 [2]: 180 nM
EC50 (Human betaherpesvirus 5 [3]; [9]): 12800 nM
EC50 (Human alphaherpesvirus 3 [4]; [10]): 2130 nM
EC50 (Human alphaherpesvirus 1; [11]): 260 nM
EC50 (Human alphaherpesvirus 2; [12]): 3850 nM
solubility [6]: 7 µM (≈ 2.41 µg/mL)

O=C1N[C@@H](Cc2ccc(NS(=O)(=O)Cc3ccc(Cl)cc3)cc2)CO1
IC50 [1]: 104000 nM
IC50 [2]: 12700 nM
EC50 (Human betaherpesvirus 5 [3]): Not Active
EC50 (Human alphaherpesvirus 3 [4]): Not Active
EC50 (Human alphaherpesvirus 1): Not Active
EC50 (Human alphaherpesvirus 2): Not Active
